Laboratory results from patent US20240076284A1, “NEW COMPOUNDS AND METHODS” (BENEVOLENTAI BIO LIMITED, priority 2020, published 2024).
pIC50: −log10 of the molar value.

Legend:
[1] = biological target: T1, Ba/F3 cells expressing BCR-ABL (Homo sapiens, UniProt P00519); test: Ba/F3 CellTiter-Glo Assay; assay type: cell-based; settings: 48 h incubation, CellTiter-Glo luminescence
T1 construct: BCR (fusion partner, N-terminal portion of BCR); host or cells: Ba/F3 (murine pro-B cells); the other entry of the earlier key: BCR (P11274, Breakpoint cluster region protein)
T1 sequence (P00519 229-512 limits assumed): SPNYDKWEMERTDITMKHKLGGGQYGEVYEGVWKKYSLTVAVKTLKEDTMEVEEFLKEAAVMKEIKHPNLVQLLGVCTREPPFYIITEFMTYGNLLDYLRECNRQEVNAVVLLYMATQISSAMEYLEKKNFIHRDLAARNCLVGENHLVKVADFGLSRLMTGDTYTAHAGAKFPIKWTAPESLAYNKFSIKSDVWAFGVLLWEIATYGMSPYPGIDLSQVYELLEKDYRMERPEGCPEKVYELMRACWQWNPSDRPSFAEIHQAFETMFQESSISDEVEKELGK
Procedure: The CellTiter-Glo luminescent cell viability assay is a homogeneous method of determining the number of viable cells in culture based on quantification of the ATP present. Briefly, IL-3 dependent Ba/F3 cells are modified to express BCR-ABL. Activity of the transformed kinase overrides IL-3 dependency for cellular proliferation and survival. […] In this assay Ba/F3 cells expressing BCR-ABL (Advanced Cellular Dynamics) or parental Ba/F3 (control) cells were prepared at 5×10^4/mL in RPMI 1640 containing 10% FBS, 1×Glutamax and 750 ng/mL puromycin. Test compounds were dispensed into 384 well plates using the Tecan D300e at a top final assay concentration of 10 μM with dosing normalised to 0.1% DMSO in […]. 50 μL cells were added to each well of the prepared 384 well plates and the plates spun at 1000 rpm for 1 min prior to incubation at 37° C., 5% CO2 for 48 h. After 48 h 15 μL CellTiter-Glo reagent was added to each well in the plate. Following a 60 min incubation at rt luminescence was read on the Pherastar FS reader.

[2] = Human microsomal stability; assay type: in vitro ADME; settings: human microsomes, first value of cell; NADPH, 37° C., up to 40 min
Procedure: (§1) This assay measures the metabolic stability of a given compound and predicts intrinsic liver clearance for various species. A quench plate is initially prepared which contains 400 μL MeCN and 25 ng/mL of internal standard. An aliquot of microsomes is defrosted and subsequently diluted with buffer. A solution of NADPH is made up fresh just before initialising the assay. 445 μL of microsome solution is added to the desired compound (5 μL in 10 μM DMSO) and the resulting solution mixed. The reaction is initiated by the addition of 50 μL of NADPH, a T0 sample is removed before the addition and quenched. The sample plate is kept at a constant 37° C. during the incubation. At pre-determined timepoints (2.5, 5, 10, 20 and 40 min) the incubation is mixed and 22.5 μL samples are transferred to quench plates. After completion of the time course, the quench plates are sealed and shaken for a minimum of 5 min, before centrifugation at 4000 rpm for 5 min. The supernatant is then subsequently transferred to a fresh plate and diluted 1:3 with MeOH/H2O. The plates are then heat sealed and analysed by a Water Acquity UPLC and a Waters TQ-S mass spectrometer. Waters MassLynx software is used for analysis using an MRM transition that has been previously generated from prior optimisation. After acquiring the data on the system the chromatograms are processed and checked using TargetLynx XS software and the raw data output is copied into a microsomal stability workbook. The workbook automatically populates and derives the CLint, t1/2 and scales the CLint values to generate Eh and predicted CL values. The analyst has the final workbook quality checked before the experiment is signed off.

[3] = biological target: T2, BCRP (Homo sapiens, UniProt Q9UNQ0); test: BCRP-MDCK effective efflux ratio; assay type: in vitro ADME; settings: BCRP-MDCK relative to wild-type MDCK, 1 μM, 60 minutes, pH 7.4
T2 construct: expressed in transfected cells; host or cells: MDCK (canine kidney) cells
T2 sequence (Q9UNQ0 1-655): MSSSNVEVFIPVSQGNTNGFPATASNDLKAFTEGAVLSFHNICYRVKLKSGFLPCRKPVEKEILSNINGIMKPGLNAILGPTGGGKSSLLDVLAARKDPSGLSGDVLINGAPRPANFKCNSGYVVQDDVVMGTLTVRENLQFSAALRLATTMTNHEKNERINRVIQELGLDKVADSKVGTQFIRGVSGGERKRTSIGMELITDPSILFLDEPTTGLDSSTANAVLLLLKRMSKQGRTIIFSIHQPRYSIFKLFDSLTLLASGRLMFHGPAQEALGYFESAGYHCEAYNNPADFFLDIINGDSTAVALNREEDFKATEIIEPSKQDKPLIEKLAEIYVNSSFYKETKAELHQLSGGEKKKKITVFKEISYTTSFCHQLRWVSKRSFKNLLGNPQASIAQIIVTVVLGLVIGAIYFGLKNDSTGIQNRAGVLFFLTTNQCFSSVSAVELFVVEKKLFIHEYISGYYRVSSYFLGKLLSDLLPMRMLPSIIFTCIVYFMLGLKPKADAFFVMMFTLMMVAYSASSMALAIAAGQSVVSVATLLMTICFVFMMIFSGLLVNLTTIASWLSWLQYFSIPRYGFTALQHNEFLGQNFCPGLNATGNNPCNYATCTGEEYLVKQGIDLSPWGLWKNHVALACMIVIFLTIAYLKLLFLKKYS
Procedure: (§2) Wild-type MDCK, MDR1-MDCK and BCRP-MDCK cells were seeded into 24 well Transwell plates and cultured for 3 days to form monolayers. Test compound were prepared at 1 μM in Hanks' Balanced Salt Solution containing 25 mM HEPES and loaded into the donor compartments of Transwell plates bearing the cell monolayers (pH 7.4 for both donor and receiver compartments). Lucifer Yellow was added to the apical buffer in all wells to assess integrity of the cell monolayer. Duplicate wells were prepared and incubated at 37° C. in a CO2 incubator. Samples were removed at time zero and 60 minutes and test compound analysed by LC-MS/MS. Concentrations of Lucifer Yellow in the samples was measured using a fluorescence plate reader. The apparent permeability (Papp) values of test compound was determined for both the apical to basal (A>B) and basal to apical (B>A) permeation and the efflux ratio (B>A: A>B) determined in each cell line. The effective efflux ratio was determined from the ratio of either MDR1-MDCK cells or BCRP-MDCK cells relative to the ratio observed in wild-type cells. A higher value represent a better substrate for the efflux mechanism, which is less preferable.

[4] = biological target: T3, MDR1 (Homo sapiens, UniProt P08183); test: MDR1-MDCK effective efflux ratio; assay type: in vitro ADME; settings: MDR1-MDCK relative to wild-type MDCK, 1 μM, 60 minutes, pH 7.4
T3 construct: expressed in transfected cells; host or cells: MDCK (canine kidney) cells
T3 sequence (P08183 whole entry, species assumed): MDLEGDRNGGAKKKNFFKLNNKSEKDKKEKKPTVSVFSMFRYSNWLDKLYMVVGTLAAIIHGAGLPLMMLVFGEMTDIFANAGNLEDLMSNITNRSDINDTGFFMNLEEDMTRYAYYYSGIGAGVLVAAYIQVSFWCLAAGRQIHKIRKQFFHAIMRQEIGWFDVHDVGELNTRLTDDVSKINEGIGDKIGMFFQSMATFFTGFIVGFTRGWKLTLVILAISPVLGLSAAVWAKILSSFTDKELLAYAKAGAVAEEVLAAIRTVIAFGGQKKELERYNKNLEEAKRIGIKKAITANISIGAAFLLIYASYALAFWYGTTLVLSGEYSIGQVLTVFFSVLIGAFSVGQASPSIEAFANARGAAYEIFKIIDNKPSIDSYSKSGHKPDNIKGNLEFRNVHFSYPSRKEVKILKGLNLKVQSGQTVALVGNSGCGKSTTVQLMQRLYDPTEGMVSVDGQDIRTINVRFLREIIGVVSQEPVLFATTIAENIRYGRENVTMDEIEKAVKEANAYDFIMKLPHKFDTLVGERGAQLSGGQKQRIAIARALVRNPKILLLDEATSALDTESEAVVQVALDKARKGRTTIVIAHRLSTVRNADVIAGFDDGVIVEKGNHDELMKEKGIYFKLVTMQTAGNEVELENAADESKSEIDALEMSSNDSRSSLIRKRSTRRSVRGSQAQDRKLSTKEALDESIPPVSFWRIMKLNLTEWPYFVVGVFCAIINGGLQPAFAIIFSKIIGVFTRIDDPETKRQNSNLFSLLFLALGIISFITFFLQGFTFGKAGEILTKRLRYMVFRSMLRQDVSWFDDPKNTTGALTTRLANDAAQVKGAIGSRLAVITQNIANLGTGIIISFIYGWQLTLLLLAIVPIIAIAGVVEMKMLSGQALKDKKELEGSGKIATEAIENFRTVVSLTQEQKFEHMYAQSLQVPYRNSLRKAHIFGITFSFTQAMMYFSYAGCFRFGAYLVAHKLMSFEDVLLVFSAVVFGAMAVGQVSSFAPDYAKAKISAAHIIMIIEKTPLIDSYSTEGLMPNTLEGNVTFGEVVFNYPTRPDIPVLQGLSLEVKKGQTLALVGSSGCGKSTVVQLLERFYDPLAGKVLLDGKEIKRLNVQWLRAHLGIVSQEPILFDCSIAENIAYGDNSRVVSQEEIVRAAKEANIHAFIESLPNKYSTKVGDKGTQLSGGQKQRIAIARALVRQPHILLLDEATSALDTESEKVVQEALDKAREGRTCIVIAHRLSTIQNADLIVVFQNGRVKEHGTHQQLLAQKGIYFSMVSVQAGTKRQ
Procedure: as §2

[5] = Rat microsomal stability; assay type: in vitro ADME; settings: rat microsomes, second value of cell; NADPH, 37° C., up to 40 min
Procedure: as §1

pIC50 [1]: 7.60
Microsomal stability (human/rat) Eh [2]: 0.56
MDCK BCRP EER [3]: 1.0
MDCK MDR1 EER [4]: 1.0
Microsomal stability (human/rat) Eh [5]: 0.44
SMILES: Cc1ccc(C(=O)Nc2cc(C(F)(F)F)ccn2)cc1-n1cc(-c2cncnc2)cn1 [Example 3, 4-Methyl-3-(4-pyrimidin-5-ylpyrazol-1-yl)-N-[4-(trifluoromethyl)-2-pyridyl]benzamide]
